Source: ChEMBL document CHEMBL6153096, “Development of Potent and Selective CK1α Molecular Glue Degraders” (J Med Chem, 2025)
Values belong to the molecule of their own block, whether it stands above or below them. Active and inactive are the calls of the source. The rule behind the calls is not given here.

Key:
[1] = biological target: T1, Cereblon/Casein kinase I alpha (Homo sapiens, UniProt P48729+Q96SW2); assay: Molecular glue activity at CRBN/HiBiT-tagged CK1-alpha in human Jurkat cells assessed as induction of CK1-alpha degradation incubated for 5 hrs by Nano-Glo HiBiT assay; assay type: cell-based
[2] = biological target: T1, Cereblon/Casein kinase I alpha; assay: Molecular glue activity at CRBN/CK1-alpha in human MOLM-13 cells assessed as induction of CK1-alpha degradation at 1 uM incubated for 5 hrs by Western blot analysis; assay type: cell-based
Target sequence in this assay (P48729 2-337 limits assumed): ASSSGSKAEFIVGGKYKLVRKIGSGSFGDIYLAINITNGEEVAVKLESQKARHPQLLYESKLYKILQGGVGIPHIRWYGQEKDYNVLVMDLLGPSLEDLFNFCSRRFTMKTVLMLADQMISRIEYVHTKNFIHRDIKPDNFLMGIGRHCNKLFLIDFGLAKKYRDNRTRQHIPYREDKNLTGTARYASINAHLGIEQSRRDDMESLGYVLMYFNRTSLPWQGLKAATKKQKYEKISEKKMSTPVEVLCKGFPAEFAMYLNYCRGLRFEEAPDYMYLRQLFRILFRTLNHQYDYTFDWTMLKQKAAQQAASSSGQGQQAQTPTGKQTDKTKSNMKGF
Target sequence in this assay (Q96SW2 whole entry partner): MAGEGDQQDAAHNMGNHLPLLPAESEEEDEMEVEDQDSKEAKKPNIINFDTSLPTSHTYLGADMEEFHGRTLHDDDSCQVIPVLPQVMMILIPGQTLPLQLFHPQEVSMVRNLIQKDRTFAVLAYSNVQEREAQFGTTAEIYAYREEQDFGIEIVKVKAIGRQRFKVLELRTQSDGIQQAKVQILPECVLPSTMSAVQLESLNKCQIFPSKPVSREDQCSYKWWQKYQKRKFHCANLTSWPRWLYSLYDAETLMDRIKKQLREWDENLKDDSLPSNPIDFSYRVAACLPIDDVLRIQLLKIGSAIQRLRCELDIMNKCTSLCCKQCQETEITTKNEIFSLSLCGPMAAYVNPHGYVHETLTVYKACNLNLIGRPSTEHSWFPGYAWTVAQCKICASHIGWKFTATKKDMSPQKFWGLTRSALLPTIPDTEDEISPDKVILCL

[3] = biological target: T1, Cereblon/Casein kinase I alpha; assay: Molecular glue activity at CRBN/CK1-alpha in human MOLM-14 cells assessed as induction of CK1-alpha degradation at 1 uM incubated for 5 hrs by Western blot analysis; assay type: cell-based
Target sequence in this assay (P48729 2-337 limits assumed): as the sequence (P48729 2-337 limits assumed) above
Target sequence in this assay (Q96SW2 whole entry partner): as the sequence (Q96SW2 whole entry partner) above

[4] = biological target: T1, Cereblon/Casein kinase I alpha; assay: Molecular glue activity at CRBN/CK1-alpha in human MOLM-14 cells assessed as increase in p53 level at 0.1 to 1 uM incubated for 24 hrs by Western blot analysis; assay type: cell-based; settings: dose 0.1-1 µM
Target sequence in this assay (P48729 2-337 limits assumed): as the sequence (P48729 2-337 limits assumed) above
Target sequence in this assay (Q96SW2 whole entry partner): as the sequence (Q96SW2 whole entry partner) above

[5] = biological target: T1, Cereblon/Casein kinase I alpha; assay: Molecular glue activity at CRBN/CK1-alpha in human MOLM-13 cells assessed as increase in MDM2 level at 0.1 to 1 uM incubated for 24 hrs by Western blot analysis; assay type: cell-based; settings: dose 0.1-1 µM
Target sequence in this assay (P48729 2-337 limits assumed): as the sequence (P48729 2-337 limits assumed) above
Target sequence in this assay (Q96SW2 whole entry partner): as the sequence (Q96SW2 whole entry partner) above

[6] = biological target: T1, Cereblon/Casein kinase I alpha; assay: Molecular glue activity at CRBN/CK1-alpha in human MOLM-13 cells assessed as increase in p21 level at 0.1 to 1 uM incubated for 24 hrs by Western blot analysis; assay type: cell-based; settings: dose 0.1-1 µM
Target sequence in this assay (P48729 2-337 limits assumed): as the sequence (P48729 2-337 limits assumed) above
Target sequence in this assay (Q96SW2 whole entry partner): as the sequence (Q96SW2 whole entry partner) above

[7] = biological target: T1, Cereblon/Casein kinase I alpha; assay: Molecular glue activity at CRBN/CK1-alpha in human MOLM-13 cells assessed as increase in p53 level at 0.1 to 1 uM incubated for 24 hrs by Western blot analysis; assay type: cell-based; settings: dose 0.1-1 µM
Target sequence in this assay (P48729 2-337 limits assumed): as the sequence (P48729 2-337 limits assumed) above
Target sequence in this assay (Q96SW2 whole entry partner): as the sequence (Q96SW2 whole entry partner) above

[8] = biological target: T1, Cereblon/Casein kinase I alpha; assay: Molecular glue activity at CRBN/CK1-alpha in human MOLM-14 cells assessed as increase in p21 level at 0.1 to 1 uM incubated for 24 hrs by Western blot analysis; assay type: cell-based; settings: dose 0.1-1 µM
[9] = biological target: T1, Cereblon/Casein kinase I alpha; assay: Molecular glue activity at CRBN/CK1-alpha in human MOLM-14 cells assessed as increase in MDM2 level at 0.1 to 1 uM incubated for 24 hrs by Western blot analysis; assay type: cell-based; settings: dose 0.1-1 µM
[10] = biological target: T1, Cereblon/Casein kinase I alpha; assay: Molecular glue activity at CRBN/CK1-alpha in human MOLT-4 cells with CRBN-/- assessed as induction of CK1-alpha degradation at 1 uM incubated for 5 hrs by quantitative mass spectrometry based proteomic analysis; assay type: cell-based
[11] = test system: MOLM-13; assay: Antiproliferative activity against human MOLM-13 cells incubated for 72 hrs by CellTiter-Glo Luminescent Cell Viability Assay; assay type: functional, cell-based; settings: MOLM-13, 72 h
[12] = test system: MOLM-14; assay: Antiproliferative activity against human MOLM-14 cells with CRBN-/- incubated for 72 hrs by CellTiter-Glo Luminescent Cell Viability Assay; assay type: functional, cell-based
[13] = Metabolic stability in human liver microsomes assessed as intrinsic clearance; assay type: ADME, Microsome
[14] = Metabolic stability in mouse liver microsomes assessed as half life; assay type: ADME, Microsome; settings: for t1/2: microsomes
[15] = test system: MOLM-14; assay: Antiproliferative activity against human MOLM-14 cells incubated for 72 hrs by CellTiter-Glo Luminescent Cell Viability Assay; assay type: functional, cell-based
[16] = Metabolic stability in human liver microsomes assessed as half life; assay type: ADME, Microsome
[17] = Metabolic stability in mouse liver microsomes assessed as intrinsic clearance; assay type: ADME, Microsome
[18] = test system: MOLT-4; assay: Induction of GSPT1 degradation in human MOLT-4 cells at 1 uM incubated for 5 hrs by quantitative mass spectrometry based proteomic analysis; assay type: cell-based
[19] = test system: MOLT-4; assay: Induction of IKZF1 degradation in human MOLT-4 cells at 1 uM incubated for 5 hrs by quantitative mass spectrometry based proteomic analysis; assay type: cell-based
[20] = test system: MOLT-4; assay: Induction of WEE1 degradation in human MOLT-4 cells at 1 uM incubated for 5 hrs by quantitative mass spectrometry based proteomic analysis; assay type: cell-based
[21] = biological target: Zinc finger protein Aiolos (Homo sapiens) (UniProt Q9UKT9); assay: Induction of IKZF3 degradation in human MOLT-4 cells at 1 uM incubated for 5 hrs by quantitative mass spectrometry based proteomic analysis; assay type: cell-based
[22] = biological target: Zinc finger protein Helios (Homo sapiens) (UniProt Q9UKS7); assay: Induction of IKZF2 degradation in human MOLT-4 cells at 1 uM incubated for 5 hrs by quantitative mass spectrometry based proteomic analysis; assay type: cell-based
[23] = Induction of HiBiT-tagged WEE1 degradation in human Jurkat cells incubated for 5 hrs by Nano-Glo HiBiT assay; assay type: cell-based
[24] = test system: Jurkat; assay: Induction of HiBiT-tagged WEE1 degradation in human Jurkat cells incubated for 5 hrs by Nano-Glo HiBiT assay relative to control; assay type: cell-based
[25] = biological target: T1, Cereblon/Casein kinase I alpha; assay: Molecular glue activity at CRBN/CK1-alpha in human MOLT-4 cells assessed as induction of CK1-alpha degradation at 1 uM incubated for <3 hrs by Western blot analysis; assay type: cell-based
[26] = biological target: T1, Cereblon/Casein kinase I alpha; assay: Molecular glue activity at CRBN/CK1-alpha in human MOLT-4 cells assessed as induction of CK1-alpha degradation at 100 uM incubated for 5 hrs by Western blot analysis; assay type: cell-based

Sequence of Zinc finger protein Aiolos (Homo sapiens) (Q9UKT9 whole entry): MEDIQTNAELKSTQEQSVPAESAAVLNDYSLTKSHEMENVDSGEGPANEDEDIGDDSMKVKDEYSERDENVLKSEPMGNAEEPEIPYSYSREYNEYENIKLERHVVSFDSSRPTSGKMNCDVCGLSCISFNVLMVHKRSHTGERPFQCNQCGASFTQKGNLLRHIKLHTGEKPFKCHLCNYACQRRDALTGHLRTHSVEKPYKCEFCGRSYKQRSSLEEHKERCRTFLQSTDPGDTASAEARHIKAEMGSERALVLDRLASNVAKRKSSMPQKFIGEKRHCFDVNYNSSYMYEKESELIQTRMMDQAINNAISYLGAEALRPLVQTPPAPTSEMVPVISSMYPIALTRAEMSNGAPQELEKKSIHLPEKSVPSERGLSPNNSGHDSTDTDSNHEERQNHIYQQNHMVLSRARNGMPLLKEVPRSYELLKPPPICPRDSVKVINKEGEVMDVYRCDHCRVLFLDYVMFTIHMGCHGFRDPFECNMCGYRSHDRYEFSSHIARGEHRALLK
Sequence of Zinc finger protein Helios (Homo sapiens) (Q9UKS7 whole entry): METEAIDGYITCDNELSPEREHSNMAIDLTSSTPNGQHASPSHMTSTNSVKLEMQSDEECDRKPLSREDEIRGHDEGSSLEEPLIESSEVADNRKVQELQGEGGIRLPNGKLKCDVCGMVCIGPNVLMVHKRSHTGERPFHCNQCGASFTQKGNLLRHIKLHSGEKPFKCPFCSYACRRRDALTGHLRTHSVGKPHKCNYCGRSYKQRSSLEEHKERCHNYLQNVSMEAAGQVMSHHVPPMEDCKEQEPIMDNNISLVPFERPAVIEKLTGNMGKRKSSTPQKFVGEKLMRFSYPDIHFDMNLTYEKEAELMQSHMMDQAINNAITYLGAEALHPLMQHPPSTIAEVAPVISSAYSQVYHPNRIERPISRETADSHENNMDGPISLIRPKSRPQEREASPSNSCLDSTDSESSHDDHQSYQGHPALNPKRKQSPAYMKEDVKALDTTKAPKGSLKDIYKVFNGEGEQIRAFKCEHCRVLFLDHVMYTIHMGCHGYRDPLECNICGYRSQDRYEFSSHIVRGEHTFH

Compound: O=C1CCC(N2Cc3cc(NC(=O)c4cnc5ccccn45)ccc3C2=O)C(=O)N1 (stereo unspecified)
DC50 [1]: 82 nM

Compound: O=C1CCC(N2Cc3cc(NC(=O)c4cn5cc(Cl)ccc5n4)ccc3C2=O)C(=O)N1 (stereo unspecified)
DC50 [1]: 1.3 nM
EC90 [1]: 14.9 nM

Compound: CN1C(=O)CCC(N2Cc3cc(NC(=O)c4cn5ccccc5n4)ccc3C2=O)C1=O (stereo unspecified)
DC50 [1]: > 10000 nM
Activity [2]: Active
Activity [3]: Active

Compound: COc1ccc2nc(C(=O)Nc3ccc4c(c3)CN(C3CCC(=O)NC3=O)C4=O)cn2c1 (stereo unspecified)
IC50 [11]: 23 nM
Activity [12]: inactive
CLH [13]: 21 µL/min/mg
DC50 [1]: 1.1 nM
EC90 [1]: 16.2 nM
Activity [2]: Active
t1/2 [14]: > 2 h
Activity [15]: Active
Activity [3]: Active
t1/2 [16]: 0.553 h
CLH [17]: < 6 µL/min/mg

Compound: O=C1CCC(N2Cc3cc(CNC(=O)c4cnc5ccccc5c4)ccc3C2=O)C(=O)N1 (stereo unspecified)
DC50 [1]: > 10000 nM

Compound: O=C1CCC(N2Cc3cc(NC(=O)c4cnc5ccccc5n4)ccc3C2=O)C(=O)N1 (stereo unspecified)
DC50 [1]: 8.8 nM

Compound: COc1cccn2cc(C(=O)Nc3ccc4c(c3)CN(C3CCC(=O)NC3=O)C4=O)nc12 (stereo unspecified)
DC50 [1]: 8.1 nM
EC90 [1]: 73.1 nM

Compound: O=C1CCC(N2Cc3cc(NC(=O)c4cc5ccccn5n4)ccc3C2=O)C(=O)N1 (stereo unspecified)
IC50 [11]: 14 nM
Activity [12]: inactive
CLH [13]: 11 µL/min/mg
DC50 [1]: 4.7 nM
Activity [2]: Active
t1/2 [14]: 0.105 h
Activity [15]: Active
Activity [3]: Active
t1/2 [16]: 1.09 h
CLH [17]: 111 µL/min/mg

Compound: O=C1CCC(N2Cc3ccc(NC(=O)c4cn5ccccc5n4)cc3C2=O)C(=O)N1 (stereo unspecified)
DC50 [1]: > 10000 nM

Compound: COc1ccn2cc(C(=O)Nc3ccc4c(c3)CN(C3CCC(=O)NC3=O)C4=O)nc2c1 (stereo unspecified)
DC50 [1]: 3.1 nM
EC90 [1]: 53 nM

Compound: O=C1CCC(N2Cc3cc(NC(=O)c4cc5ncccn5n4)ccc3C2=O)C(=O)N1 (stereo unspecified)
DC50 [1]: 61 nM

Compound: O=C1CCC(N2C(=O)c3ccc(NC(=O)c4cn5ccccc5n4)cc3C2=O)C(=O)N1 (stereo unspecified)
DC50 [1]: 88 nM

Compound: Cc1c(C(=O)Nc2ccc3c(c2)CN(C2CCC(=O)NC2=O)C3=O)nc2ccccn12 (stereo unspecified)
DC50 [1]: 8.4 nM

Compound: Cc1cccc2nc(C(=O)Nc3ccc4c(c3)CN(C3CCC(=O)NC3=O)C4=O)cn12 (stereo unspecified)
DC50 [1]: 3.3 nM
EC90 [1]: 35.3 nM

Compound: O=C1CCC(N2Cc3cc(-c4cnc5ccccc5c4)ccc3C2=O)C(=O)N1 (stereo unspecified)
IC50 [11]: 2400 nM
Activity [12]: inactive
Activity [4]: Active
CLH [13]: < 6 µL/min/mg
Activity [5]: Active
DC50 [1]: 46.8 nM
Activity [2]: Active
Activity [6]: Active
Activity [7]: Active
Activity [18]: inactive
t1/2 [14]: 1.09 h
Activity [8]: Active
Activity [19]: inactive
Activity [15]: Active
Activity [3]: Active
Activity [20]: inactive
Activity [21]: inactive
Activity [25]: Active
Activity [9]: Active
t1/2 [16]: > 2 h
CLH [17]: 11 µL/min/mg
Activity [10]: Not active; Compound Induced Ck1-Alpha Degradation In A Crbn Dependent Manner

Compound: O=C1CCC(N2Cc3cc(NC(=O)c4cc5ccccc5cn4)ccc3C2=O)C(=O)N1 (stereo unspecified)
DC50 [1]: 7.56 nM
Activity [18]: inactive
Activity [19]: inactive
Activity [20]: inactive
Activity [21]: inactive

Compound: O=C1CCC(N2C(=O)c3ccc(NC(=O)c4cnc5ccccc5c4)cc3C2=O)C(=O)N1 (stereo unspecified)
DC50 [1]: 79 nM

Compound: CCN(CC)CCNC(=O)c1c(C)[nH]c(/C=C2\C(=O)Nc3ccc(F)cc32)c1C [SUNITINIB]
CLH [13]: 18 µL/min/mg
half-life ([14]; liver microsomes): 0.348 h
t1/2 [16]: 0.657 h
CLH [17]: 33 µL/min/mg

Compound: O=C1CCC(N2Cc3cc(NC(=O)c4cc5ccccn5c4)ccc3C2=O)C(=O)N1 (stereo unspecified)
DC50 [1]: 87 nM

Compound: O=C1CCC(N2Cc3cc(NC(=O)c4cn5ccccc5n4)ccc3C2=O)C(=O)N1 (stereo unspecified)
IC50 [11]: 41 nM
Activity [12]: inactive
Activity [4]: Active
CLH [13]: < 6 µL/min/mg
Activity [5]: Active
DC50 [1]: 5.7 nM
Activity [2]: Active
Activity [6]: Active
Activity [7]: Active
t1/2 [14]: 1.26 h
Activity [8]: Active
Activity [15]: Active
Activity [3]: Active
Activity [26]: Active; Induces Maximum Degradation
Activity [25]: Active
Activity [9]: Active
t1/2 [16]: > 2 h
CLH [17]: 9 µL/min/mg

Compound: O=C1CCC(N2Cc3cc(CNC(=O)c4cn5ccccc5n4)ccc3C2=O)C(=O)N1 (stereo unspecified)
DC50 [1]: > 10000 nM

More lines, main results first:

DC50 [1]: 61 nM
Compound: O=C1CCC(N2Cc3cc(NC(=O)c4nc5ccccn5n4)ccc3C2=O)C(=O)N1 (stereo unspecified)

Activity [4]: Active
Activity [5]: Active
Activity [6]: Active
Activity [7]: Active
Activity [8]: Active
Activity [9]: Active
Compound: O=C1CCC(N2Cc3cc(Nc4noc5ccccc45)ccc3C2=O)C(=O)N1 (stereo unspecified)
Activity [10]: Not active; Compound Induced Ck1-Alpha Degradation In A Crbn Dependent Manner

DC50 [1]: 17.5 nM
EC90 [1]: 135 nM
Compound: O=C1CCC(N2Cc3cc(NC(=O)c4cn5ccc(F)cc5n4)ccc3C2=O)C(=O)N1 (stereo unspecified)

DC50 [1]: > 10000 nM
Compound: O=C1CCC(N2Cc3c(NC(=O)c4cnc5ccccc5c4)cccc3C2=O)C(=O)N1 (stereo unspecified)

CLH [13]: 30 µL/min/mg
DC50 [1]: 79 nM
t1/2 [14]: > 2 h
Activity [21]: inactive
t1/2 [16]: 0.39 h
CLH [17]: < 6 µL/min/mg
Compound: O=C1CCC(N2Cc3cc(NC(=O)c4cnc5ccccc5c4)ccc3C2=O)C(=O)N1 (stereo unspecified)
Activity [18]: inactive
Activity [19]: inactive
Activity [20]: inactive

DC50 [1]: 10 nM
Activity [22]: Active
DC50 [23]: 43000 nM
Compound: O=C1CCC(N2Cc3cc(-c4cc5ccccc5cn4)ccc3C2=O)C(=O)N1 (stereo unspecified)
Activity [18]: Active
Emax [24]: 80%
Activity [20]: Active
Activity [10]: Not active; Compound Induced Ck1-Alpha Degradation In A Crbn Dependent Manner

Activity [4]: Active
Activity [5]: Active
Activity [6]: Active
Activity [7]: Active
Activity [8]: Active
Activity [9]: Active
Compound: COc1ccc2cc(C(=O)Nc3ccc4c(c3)CN(C3CCC(=O)NC3=O)C4=O)ccc2c1 (stereo unspecified)
Activity [10]: Not active; Compound Induced Ck1-Alpha Degradation In A Crbn Dependent Manner

DC50 [1]: 6.1 nM
EC90 [1]: 45.5 nM
Compound: O=C1CCC(N2Cc3cc(NC(=O)c4cn5cc(F)ccc5n4)ccc3C2=O)C(=O)N1 (stereo unspecified)

DC50 [1]: 138 nM
Compound: O=C1CCC(N2Cc3c(CNC(=O)c4cnc5ccccc5c4)cccc3C2=O)C(=O)N1 (stereo unspecified)

DC50 [1]: 11.1 nM
Compound: O=C1CCC(N2Cc3cc(NC(=O)c4nc5ccccc5[nH]4)ccc3C2=O)C(=O)N1 (stereo unspecified)

IC50 [11]: 29 nM
DC50 [1]: 1.6 nM
EC90 [1]: 25 nM
Activity [2]: Active
Activity [3]: Active
Compound: O=C1CCC(N2Cc3cc(NC(=O)c4cn5cccc(C(F)(F)F)c5n4)ccc3C2=O)C(=O)N1 (stereo unspecified)
Activity [12]: inactive
Activity [15]: Active
